In publication PMC5612656, “In vitro and in vivo effects of 2,4 diaminoquinazoline inhibitors of the decapping scavenger enzyme DcpS: Context-specific modulation of SMN transcript levels” (PLoS ONE, 2017):

Tests used:
[1] = test system: Renilla luciferase driven by the CMV promoter; test: Reporter gene assay, CMV-driven Renilla luciferase; type: cell-based; settings: 24 hrs
Method: (§1) The SMN2 reporter cell line was cultured in high-glucose DMEM supplemented with 10% (v/v) fetal bovine serum (FBS) and 1X Penicillin/Streptomycin. Reporter cells media was supplemented with hygromycin during maintenance. All cells were maintained at 37°C and […]. After seeding in 96-well white tissue culture plates at 25,000 per well, cells were incubated overnight before being exposed to different doses of compounds or DMSO for 24 hrs. The final DMSO concentration was kept constant at 0.1% (v/v). Firefly and renilla luciferase expression were assayed with DualGlo (Promega E2920) and measured on a PHERAstar FS microplate reader (BMG Labtech). Relative light units are normalized to DMSO control and expressed as a percentage.

[2] = test system: firefly luciferase driven by the SMN2 promoter and SMN2 splicing cassette; test: SMN2 reporter gene assay, firefly luciferase; type: cell-based; settings: 24 hrs
Method: as §1

SMN protein [3] = test: SMN protein by Western blot in SMA cells (fibroblasts, lymphoblasts, iPS-derived neural progenitor cells); type: cell-based, human; settings: 24 hours to 7 days
Method: Lysates were incubated at 95°C for 5 minutes and cleared at 14,000 RPM for 15 minutes. Cleared lysates were quantified by BCA assay. A total of 5 μg of each lysate was mixed with NuPage LDS sample buffer with […] and loaded and separated on a NuPage 10% Bis-Tris gel. Proteins were transferred to 0.2 micron nitrocellulose using the BioRad Turbo Transfer system.

recombinant human DcpS = target: T1, recombinant human DcpS (Homo sapiens, UniProt Q96C86); test: in vitro DcpS inhibition assay (m7GpppA-biotin substrate, ADP-biotin detection); type: biochemical; settings: mean of two or more independent assays
T1 sequence (Q96C86 1-337): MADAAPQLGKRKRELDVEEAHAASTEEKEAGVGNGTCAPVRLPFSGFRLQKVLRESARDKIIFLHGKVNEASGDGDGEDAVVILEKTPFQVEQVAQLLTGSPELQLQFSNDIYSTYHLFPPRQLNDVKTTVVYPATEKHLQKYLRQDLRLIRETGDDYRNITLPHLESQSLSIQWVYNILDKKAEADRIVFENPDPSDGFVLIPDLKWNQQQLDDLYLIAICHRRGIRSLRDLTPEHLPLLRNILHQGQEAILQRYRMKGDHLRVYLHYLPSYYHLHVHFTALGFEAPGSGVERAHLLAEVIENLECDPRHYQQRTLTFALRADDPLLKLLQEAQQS
Method: Incubations were initiated by the addition of 50 nM m7GpppA-biotin substrate and proceeded for 45 min at room temperature before being terminated by the addition of 1 μM D156844 [11]. Production of ADP-biotin was quantitated by transferring 18 μl of the quenched reaction (or biotin-ADP standard) to a streptavidin-coated plate (Pierce), incubating for 2 hours then washing 3 times followed by detection using an anti-ADP mouse antibody (Bellbrook lab) and an HRP-conjugated Goat anti-mouse IgG (Invitrogen).

N2a cells = test: RNA-Seq (polyA RNA) of N2a neuroblastoma cells; type: cell-based, mouse; settings: 1 μM
Method: Cells were then pelleted and lysed in RLT and the RNA was purified according to the protocol for the Qiagen miRNeasy kit to separate and enrich small RNA and large (>200 nt) fractions separately. […] RNA quality was also validated using qPCR for DcpS responsive genes. RNA fractions were used for cDNA library preparation which was performed using Truseq mRNA v2 reagents or TailorMix miRNA reagents (RS-122-2101 Illumina, San Diego CA, USA and TM302 Seqmatic, Fremont CA, USA). Libraries were run on a Nextseq 500 (Illumina) using a paired-end run (2x75bp) generating ~60 million reads per library for the mRNA-seq and 1x75bp generating ~5 million reads per library for the miRNA-seq. Demultiplexing, alignment, and differential analysis for the mRNA-seq were performed as described below. For the miRNA alignment, briefly the sequences between 16 and 35 nucleotides with average phred score ≥ 30 were retained for analysis. The reads were first mapped to mouse miRNAs using Bowtie without allowing for mismatches. Instead of discarding the remaining reads, we explored the possibilities of RNA editing to include potential isomiRs. These reads were mapped to miRNAs that have at most 1 base mismatch, a substitution at the 5’ or 3’ ends, or have 1 or 2 extra bases at either ends. Although 1 base mismatch would include 1 base substitution/deletion/addition at the ends, we made sure that 1 base mismatch was inside the miRNA and that all categories were mutually exclusive. Reads mapping to protein coding exons and other small RNAs were removed prior to mapping to miRNAs. Reads that uniquely mapped to miRNAs were considered and were profiled as: 1) identical to miRNAs, 2) perfect match to miRNAs but are of shorter length (no more than 5 bases short), 3) mapping to miRNAs with 1 substitution, 1 or 2 extra bases at 3’ and 5’ ends and with those with at most 1 mismatch (occurring inside the sequence and not on ends), 4) mapping to the precursor miRNA. Thus, steps 2–4 constitute “IsomiRs”-alternative forms of the mature miRNAs. We merged the counts of reads identical to a miR and those mapping to isomeric forms as they are found to have identical/very similar functions. The unaligned reads were mapped to the mouse genome and an internally developed database of rRNAs from bacteria, fungi, plant and eukaryotes to detect presence of contaminants. For differential analysis of miRNAs, only those with counts of ≥5 in at least 1/3rd samples (treatment vs control) were considered for analysis. The counts were normalized and analyzed using EdgeR [19] packages in R-Bioconductor. The P-values were corrected by FDR for multiple testing and miRNAs with FDR ≤15% and |FC|>1.5 were considered to be differentially expressed.
The differentially regulated gene lists for both the spinal cord mRNA-seq and the N2a mRNA-seq results with a corrected P-value less than 0.05 were loaded into IPA and analyzed against the Ingenuity Knowledgebase, Ingenuity Expert Information, and with experimentally observed confidence.

2B/- SMA mice [4] = test: Survival and body weight study in 2B/- SMA mice; type: in vivo, mouse; settings: b.i.d. i.p. P4-P20, RG3039 6 mg/kg, PF-06738066 10 mg/kg, P < 0.0001 Mantel-Cox or Gehan-Breslow-Wilcoxon
[5] = Plasma drug levels after P4-P16 dosing; settings: FVB/N background, mouse, ip
From the text: Personnel conducting studies followed the approved standard operating procedures for daily monitoring, dosing, weaning and euthanasia according to the approved study protocol. […] Line maintenance was maintained by interbreeding of the congenic line and every 4th generation mice were outbred to wild type FBV/N mice (jax # 001800) to reduce the possibility of new mutations within the line. Smn 2B mice were internally developed and maintained in the DiDonato laboratory. To generate the SMA mice used in this study an intercross between Smn 2B/2B and Smn +/- mice was performed. This generated litters in which 50% of the offspring were control (2B/+) and 50% SMA (2B/-). The day of birth was considered to be P0. If pups were born after 3pm, the following day was considered P0. At P1, pups were counted. If greater than 10 pups to a cage, pups were randomly chosen and moved to another cage to increase litter size, culled to reduce litter size or genotyped at P1 and culled at P2 to reduce litter size to 10 or fewer pups. Thereafter, no culling of pups was performed for drug studies. Individual mice were genotyped from DNA obtained from tail snips by polymerase chain reaction (PCR). All mice were weaned at P21 and separated into male and female cages. […] For the PK single dose studies a single ip injection was used. […] Body weights were recorded daily in the AM and dosing volume was adjusted accordingly. […]

[6] = test system: Smn transcripts in spinal cord, skeletal muscle, liver; test: Smn transcripts in mouse tissues by ddPCR; type: in vivo
From the text: (§2) At P1, pups were counted.

2B/- SMA mice [7] = test: Combined 55° negative geotaxis/climb test in 2B/- SMA mice; type: in vivo, mouse
[8] = Single dose PK in P13 2B/- SMA and 2B/+ littermate pups
From the text: Personnel conducting studies followed the approved standard operating procedures for daily monitoring, dosing, weaning and euthanasia according to the approved study protocol. […] Line maintenance was maintained by interbreeding of the congenic line and every 4th generation mice were outbred to wild type FBV/N mice (jax # 001800) to reduce the possibility of new mutations within the line. Smn 2B mice were internally developed and maintained in the DiDonato laboratory. To generate the SMA mice used in this study an intercross between Smn 2B/2B and Smn +/- mice was performed. This generated litters in which 50% of the offspring were control (2B/+) and 50% SMA (2B/-). The day of birth was considered to be P0. If pups were born after 3pm, the following day was considered P0. At P1, pups were counted. If greater than 10 pups to a cage, pups were randomly chosen and moved to another cage to increase litter size, culled to reduce litter size or genotyped at P1 and culled at P2 to reduce litter size to 10 or fewer pups. Thereafter, no culling of pups was performed for drug studies. Individual mice were genotyped from DNA obtained from tail snips by polymerase chain reaction (PCR). All mice were weaned at P21 and separated into male and female cages. […] For the PK single dose studies a single ip injection was used. For survival studies drug level and tissue harvest mice from P4-P16 treatment, mice were treated twice daily (b.i.d.) via intraperitoneal (i.p.) injection starting on P4 and continuing until P20 or the sacrifice of the animals, whichever occurred sooner. The dosing interval was 12 hours ± 90 minutes. Body weights were recorded daily in the AM and dosing volume was adjusted accordingly. […] At P4, litters were randomized across treatment arms to uniformly control litter size and litter weight as appropriate. Litter size entry was a minimum of 6 and maximum of 10. Litters with average weights at P4 that were greater or less than two stand deviations below the average P4 litter weight of untreated litters were also excluded from study entry. […]

[9] = Single dose PK in adult FVB/N wild type mice
From the text: Personnel conducting studies followed the approved standard operating procedures for daily monitoring, dosing, weaning and euthanasia according to the approved study protocol. […] Line maintenance was maintained by interbreeding of the congenic line and every 4th generation mice were outbred to wild type FBV/N mice (jax # 001800) to reduce the possibility of new mutations within the line. Smn 2B mice were internally developed and maintained in the DiDonato laboratory. To generate the SMA mice used in this study an intercross between Smn 2B/2B and Smn +/- mice was performed. This generated litters in which 50% of the offspring were control (2B/+) and 50% SMA (2B/-). The day of birth was considered to be P0. If pups were born after 3pm, the following day was considered P0. At P1, pups were counted. If greater than 10 pups to a cage, pups were randomly chosen and moved to another cage to increase litter size, culled to reduce litter size or genotyped at P1 and culled at P2 to reduce litter size to 10 or fewer pups. Thereafter, no culling of pups was performed for drug studies. Individual mice were genotyped from DNA obtained from tail snips by polymerase chain reaction (PCR). All mice were weaned at P21 and separated into male and female cages. […] For the PK single dose studies a single ip injection was used. For survival studies drug level and tissue harvest mice from P4-P16 treatment, mice were treated twice daily (b.i.d.) via intraperitoneal (i.p.) injection starting on P4 and continuing until P20 or the sacrifice of the animals, whichever occurred sooner. The dosing interval was 12 hours ± 90 minutes. Body weights were recorded daily in the AM and dosing volume was adjusted accordingly. […] At P4, litters were randomized across treatment arms to uniformly control litter size and litter weight as appropriate. Litter size entry was a minimum of 6 and maximum of 10. Litters with average weights at P4 that were greater or less than two stand deviations below the average P4 litter weight of untreated litters were also excluded from study entry. All mice within a litter were dosed with only one test article or received no dose at all. Dosers/phenotypic testers were blinded to the test articles being administered. […] Mice meeting humane functional endpoints (30 percent loss of weight for two consecutive days and/or an inability to right within 1 minute or obvious state of distress) were immediately euthanized with CO2 followed by cervical dislocation as a secondary measure. […] Those not used for analyses were also euthanized using CO2 inhalation followed by cervical dislocation as a secondary measure.

Smn protein [10] = test: Smn protein in mouse tissues by Western blot; type: in vivo; settings: 2B/- SMA mice
From the text: as §2

[11] = test system: SMN transcripts in SMA-derived lymphoblasts; test: SMN transcripts by ddPCR in SMA-derived lymphoblasts; type: cell-based, human; settings: active DAQ-DcpSi vs 7-methyl analogues
[12] = cited from earlier work
[13] = test system: SMN protein in SMA patient fibroblasts; parameters: method as in PMID 18205293; settings: cited from earlier work
Smn mRNA in NSC-34 cells = test system: Smn mRNA in NSC-34 cells; parameters: method as in PMID 18205293; settings: cited from earlier work
SMA Δ7 mice = settings: SMAΔ7 mice; cited from earlier work
[14] = P16, Fisher's exact test P-value = 0.0708
[15] = adult FVB/N mice, 30 mg/kg i.p.

CCN1CCN(c2ccc3cc(-c4cn5cc(C)nc(C)c5n4)c(=O)oc3c2)C[C@@H]1C [SMN-C2]
effect on CMV-driven Renilla luciferase activity [1]: no effect
effect on SMN2-driven firefly luciferase activity [2]: strong positive effect
SMN protein (SMN protein [3]): positive SMN response

CC(C)c1cc(C(=O)Nc2ccc(F)c(Cl)c2)no1 [LDN-75654]
effect on CMV-driven Renilla luciferase activity [1]: much weaker
effect on SMN2-driven firefly luciferase activity [2]: strong positive effect

Cc1cc(COc2cc(F)cc(C#N)c2)c2c(N)nc(N)nc2c1 [PF-06832344]
IC50 (recombinant human DcpS): > 10 µM

Cc1cc(OCC2CCN(Cc3c(Cl)cccc3Cl)CC2)c2c(N)nc(N)nc2c1 [PF-06802336]
effect on CMV-driven Renilla luciferase activity [1]: no effect
genes down-regulated by compound (P < 0.05) (N2a cells; 24 hours): 3 genes
genes upregulated by compound (P < 0.05) (N2a cells; 24 hours): 4 genes
genes differentially expressed compared to DMSO (P < 0.05) (N2a cells; 24 hours, 18,409 detectable genes): 7 genes
effect on SMN2-driven firefly luciferase activity [2]: no effect

N#Cc1cc(F)cc(OCc2cccc3nc(N)nc(N)c23)c1 [PF-06738066]
effect on survival of SMA mice compared to vehicle-treated SMA mice (2B/- SMA mice [4]): statistically significant beneficial effect on survival
concentration at 12 h [5]: 0.184 ± 0.076 µM
Smn exons 7/8 in spinal cord ([6]; 2B/+ control mice): significant decrease
Smn transcripts (exons 5/6, exons 7/8, SmnΔ7) in tissues ([6]; 2B/- SMA mice, P4-P16 BID i.p.): significant increases in Smn transcripts in all tissues
simultaneous pass rate, 55° negative geotaxis and climb test (2B/- SMA mice [7]; 2B/- SMA mice at P16, combined sexes): about 78%
improvement in ability to pass the combined assay over vehicle SMA mice (2B/- SMA mice [7]; [14]): ~40%
statistical significance of improvement over vehicle SMA mice in combined test (2B/- SMA mice [7]; [14]): showed improvement over vehicle SMA mice that did not reach statistical significance
free drug levels in brain lower than in plasma ([8]; 2B/- SMA pups, P13, 10 mg/kg i.p.): 3–4 fold
concentration at 12 h ([8]; FVB/N background, mouse, brain, intraperitoneal, 10 mg/kg): ~0.007 µM
drug exposures in SMA pups compared to healthy littermates ([8]; P13, 10 mg/kg i.p.): somewhat higher in SMA pups
Cave,u Brain ([9]; FVB/N mice, 30mpk IP): 0.063 µM
Cave,u CSF ([9]; FVB/N mice, 30mpk IP): 0.047 µM
Cave,u Plasma ([9]; FVB/N mice, 30mpk IP): 0.173 µM
brain penetration [9, 15]: moderate brain penetration
free drug levels in brain and CSF lower than in plasma [9, 15]: approximately 2.5 fold
Smn protein levels in muscle (Smn protein [10]): small but significant increase in muscle
Smn protein levels in spinal cord (Smn protein [10]): significant decrease in spinal cord
changes in SMN transcripts [11]: modest changes in SMN transcripts
effect on CMV-driven Renilla luciferase activity [1]: strong effect

Nc1nc(N)c2c(OCC3CCN(Cc4ccccc4F)CC3)cccc2n1 [D156844]
physicochemical character (lipophilicity, basicity) [12]: highly lipophilic and dibasic
SMN protein levels [13]: raised SMN protein levels
numbers of SMN-positive nuclear foci (gems) [13]: dramatically increased
endogenous mouse Smn mRNA (Smn mRNA in NSC-34 cells): elevated the endogenous mouse Smn mRNA
SMN2 or SMNΔ7 transcript levels or SMN protein in CNS tissues (SMA Δ7 mice): no statistically significant effect
snRNP assembly (SMA Δ7 mice): nor did it have any statistically significant effect
effect on CMV-driven Renilla luciferase activity [1]: strong effect
